The results in this text go back to ChEMBL document CHEMBL1201862, “PubChem BioAssay data set” (2004).

Holding throughout (test): NCI anticancer screen, dose series, 48 h
In experiment [1] the test system is A498.
The test system of experiment [2] is CCRF-CEM.
Experiment [3] relates to COLO 205.
The subject of experiment [4] is HOP-62.
Experiment [5] relates to LOX IMVI.
Experiment [6] deals with MDA-MB-231.
Experiment [7] concerns MDA-MB-435.
Experiment [8] has as its system NCI-H226.
Experiment [9] concerns NCI/ADR-RES.
Experiment [10] relates to OVCAR-4.
For experiment [11], the system named is OVCAR-5.
In experiment [12] the test system is OVCAR-8.
For experiment [13], the system named is SNB-75.
For experiment [14], the system named is SR.
Experiment [15] relates to TK-10.
The test system of experiment [16] is UACC-257.
Experiment [17] has as its system RPMI-8226.
Experiment [18] relates to UO-31.
Experiment [19] relates to BT-549.

Each structure is given as a SMILES string.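 Grown in 96-well plates, cells were treated for 48 hours with each compound at five concentrations. Insufficient inhibition: endpoint recorded as highest concentration tested. GI50 = concentration required for 50% inhibition of growth.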 Activity calls are given as the source filed them. No stated cut-off is given here; in the data, active = GI50 up to about 1.1 µM and inactive = higher. Some results are limits rather than exact numbers.

As to `CCOC(=O)c1c(SC(=O)c2ccc(Cl)cc2)n(-c2ccccc2)c(=S)n(-c2ccccc2)c1=O`, the GI50 in [1], in [2], in [3], in [4], in [5] and in experiment [6] was > 100 µM (inactive) throughout. In addition, the GI50 in experiment [7], in experiment [8], in [9], in experiment [10], in experiment [11] and in [12] was > 100 µM (inactive) throughout. Moreover, the GI50 in experiment [13], in [14], in [15] and in experiment [16] was > 100 µM (inactive) each time.

For the compound `[O-][S+](Nc1ccccc1)c1ccccc1Oc1ccccc1` (configuration not stated), the GI50 in experiment [2] was 32.5 µM (inactive); in [3], > 100 µM (inactive); in experiment [4] it was 32.7 µM (inactive); in experiment [5], 19.7 µM (inactive); in experiment [6], 36.2 µM (inactive); in [7], 40.8 µM (inactive). Also, the GI50 in experiment [8] was 30.4 µM (inactive); in experiment [9], 27.5 µM (inactive); in experiment [11], > 100 µM (inactive); in experiment [12], 26.9 µM (inactive); in experiment [17] it was 43.3 µM (inactive); in experiment [13], 28.6 µM (inactive). The GI50 in [14] was 7.41 µM (inactive); in [15] it was > 100 µM (inactive); in experiment [16], 51.2 µM (inactive); in experiment [18] it was 20.9 µM (inactive).

For the compound `CC(C)CCn1nc(N)c2nc3ccccc3nc21`, the GI50 in experiment [1] is > 100 µM (inactive); in experiment [19], > 100 µM (inactive); in [2], 46.2 µM (inactive); in experiment [4], > 100 µM (inactive); in experiment [5], > 100 µM (inactive); in experiment [7] it was > 100 µM (inactive). Besides, the GI50 was 61.8 µM (inactive) in experiment [8]; > 100 µM (inactive) in [9]; > 100 µM (inactive) in [10]; > 100 µM (inactive) in [11]; > 100 µM (inactive) in experiment [12]; > 100 µM (inactive) in experiment [17]. Moreover, the GI50 in experiment [13] was > 100 µM (inactive); in experiment [14] it was 15.2 µM (inactive); in experiment [15] it was > 100 µM (inactive); in [16], > 100 µM (inactive); in experiment [18] it was > 100 µM (inactive).

As to `COc1cc(COC(=O)N2CCCCC2C(=O)O)c([N+](=O)[O-])cc1OC` (configuration not stated), the GI50 in experiment [1], in [19], in experiment [2], in experiment [3], in experiment [4] and in experiment [7] was > 100 µM (inactive) each time. Also, the GI50 in [8], in experiment [9], in [11], in experiment [12], in [17] and in [13] was > 100 µM (inactive) in each case. In addition, the GI50 in experiment [14], in experiment [15], in experiment [16] and in [18] was > 100 µM (inactive) each time.

For the compound `COC(=O)CN1CCN(c2cccc3c2CCCC3)CC1`, the GI50 in [1] is > 100 µM (inactive); in experiment [2], 47.9 µM (inactive); in experiment [3] it was 29.2 µM (inactive); in experiment [4], > 100 µM (inactive); in experiment [5] it was 43.5 µM (inactive); in experiment [6] it was 71.9 µM (inactive). The GI50 in experiment [7] was 40.5 µM (inactive); in experiment [8], 23.4 µM (inactive); in experiment [9] it was 24.5 µM (inactive); in experiment [10], 52.8 µM (inactive); in experiment [11], 48.9 µM (inactive); in experiment [12] it was > 100 µM (inactive). In addition, the GI50 is 25.1 µM (inactive) in experiment [17]; 43.6 µM (inactive) in experiment [13]; 35.5 µM (inactive) in experiment [14]; 93.8 µM (inactive) in experiment [15]; 50.6 µM (inactive) in experiment [16]; 92.3 µM (inactive) in experiment [18].

For the compound `O=C1/C(=C/c2ccco2)N=C(c2ccccc2)N1c1cc2cc(Sc3ccccc3)ccc2[nH]1`, the GI50 was 17 µM (inactive) in experiment [1]; 19.4 µM (inactive) in [19]; 2.72 µM (inactive) in experiment [2]; 8.51 µM (inactive) in experiment [3]; 12.3 µM (inactive) in experiment [5]; 6.55 µM (inactive) in experiment [7]. In addition, the GI50 in experiment [9] is 10.2 µM (inactive); in experiment [10] it was > 25 µM (inactive); in [11], 21.6 µM (inactive); in experiment [12] it was 22.8 µM (inactive); in [17], 0.457 µM (active); in experiment [13], > 25 µM (inactive). The GI50 in experiment [14] was 5.18 µM (inactive); in [18], 18.8 µM (inactive).

`Cc1ccccc1CN1CC=c2ccccc2=N1`: the GI50 in experiment [1], in [2], in experiment [3], in experiment [4], in [5] and in experiment [8] was > 100 µM (inactive) throughout. Also, the GI50 is > 100 µM (inactive) in experiment [10]; > 100 µM (inactive) in experiment [11]; > 100 µM (inactive) in [12]; > 100 µM (inactive) in experiment [17]; 50.9 µM (inactive) in [13]; > 100 µM (inactive) in [15]. Also, the values for the GI50 in experiment [16] and in experiment [18] were > 100 µM (inactive) and 50.1 µM (inactive), respectively.

Regarding `COc1ccc(OC)c2c1C1CCC(=O)N1CN2C(C)=O` (configuration not stated), the GI50 in [1], in [2], in [3], in experiment [4], in experiment [5] and in [6] was > 100 µM (inactive) throughout. Also, the GI50 in experiment [7], in experiment [8], in [9], in experiment [10], in [11] and in [12] was > 100 µM (inactive) each time. For the same compound, the GI50 in experiment [17], in experiment [13], in experiment [15], in [16] and in experiment [18] was > 100 µM (inactive) throughout.

In the case of `CC1C2CC(C(S(=O)(=O)O)C2=O)C1(C)C` (configuration not stated), the GI50 in [1], in experiment [19], in experiment [2], in experiment [3], in experiment [4] and in experiment [6] was > 100 µM (inactive) each time. The GI50 in experiment [7], in experiment [8], in experiment [10], in experiment [11], in experiment [12] and in experiment [13] was > 100 µM (inactive) in each case. In addition, the GI50 in experiment [14], in [15], in experiment [16] and in experiment [18] was > 100 µM (inactive) each time.

Take `CN1C(=O)NC(=O)/C(=C\Nc2ncccn2)C1=O`: the GI50 in experiment [1], in [3], in [4], in experiment [5], in [6] and in experiment [7] was > 100 µM (inactive) each time. In addition, the GI50 in [8], in experiment [9], in experiment [10], in experiment [11], in experiment [12] and in [13] was > 100 µM (inactive) throughout. Besides, the GI50 in experiment [15], in experiment [16] and in experiment [18] was > 100 µM (inactive) throughout.

For the compound `O=c1[nH]c(=O)n(C2OC(CO)C(O)C2O)cc1Oc1ccccc1` (configuration not stated), the GI50 in [1], in experiment [2], in [3], in experiment [4], in experiment [5] and in experiment [6] was > 100 µM (inactive) each time. The GI50 in experiment [7], in experiment [8], in [9], in [10], in experiment [11] and in experiment [12] was > 100 µM (inactive) in each case. Also, the GI50 in experiment [13], in experiment [14], in [15] and in [16] was > 100 µM (inactive) each time.

Regarding `O=c1[nH][nH]c(=O)c2c1ccc1oc3ccccc3c12`, the GI50 in [1], in [19], in [2], in experiment [3], in experiment [4] and in experiment [6] was > 100 µM (inactive) each time. In addition, the GI50 in experiment [7], in [8], in experiment [10], in experiment [11], in experiment [12] and in [17] was > 100 µM (inactive) in each case. Also, the GI50 in [13], in experiment [14], in [15], in [16] and in experiment [18] was > 100 µM (inactive) each time.
